Experimental findings from PubChem BioAssay (NCI) are described below.

Among the test systems are A549 NSCLC; CAKI-1 renal; CCRF-CEM leukemia; HCC-2998 colon; HL-60(TB) leukemia; HOP-62 NSCLC; KM12 colon; M14 melanoma; NCI-H23 lung; OVCAR-3 ovarian; PC-3 prostate; SF-268 CNS; TK-10 renal; U251 CNS; UACC-257 melanoma; HOP-92 NSCLC; NCI-H522 lung; SK-MEL-5 melanoma; MALME-3M melanoma.
Common to all, as to assay: NCI anticancer screen, dose series, 48 h

The structures appear in SMILES notation.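 Test compounds were applied to cells in 96-well plates for 48 hours at 5 doses. TGI denotes the concentration required for complete inhibition of growth.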 A value given as a limit tells only on which side of the number the result lay.

As to `N#Cc1c(=O)c2ccccc2n2c1[nH]c1ccccc12`, the TGI was greater than 100 µM in the assay with A549 NSCLC; greater than 100 µM in the assay with CAKI-1 renal; 79.6 µM in the assay with CCRF-CEM leukemia; greater than 100 µM in the assay with HCC-2998 colon; greater than 100 µM in the assay with HL-60(TB) leukemia; greater than 100 µM in the assay on HOP-62 NSCLC. Also, the TGI in the assay on KM12 colon, in the assay with M14 melanoma, with NCI-H23 lung, in the assay on OVCAR-3 ovarian, with PC-3 prostate and with SF-268 CNS was greater than 100 µM throughout. In addition, the TGI in the assay on TK-10 renal, in the assay with U251 CNS and in the assay with UACC-257 melanoma was greater than 100 µM in each case.

On to `CCC(C(=O)C(=O)C(CC)P1(=O)OC(C)(C)CN1C(C)(C)C)P1(=O)OC(C)(C)CN1C(C)(C)C` (stereo unspecified), for which the TGI with A549 NSCLC, in the assay on CAKI-1 renal, in the assay on CCRF-CEM leukemia, with HCC-2998 colon, in the assay with HL-60(TB) leukemia and with HOP-62 NSCLC was greater than 100 µM in each case. The TGI in the assay with HOP-92 NSCLC, with KM12 colon, in the assay on M14 melanoma, with NCI-H23 lung, with NCI-H522 lung and in the assay with OVCAR-3 ovarian was greater than 100 µM in each case. The TGI in the assay on PC-3 prostate, in the assay on SF-268 CNS, with SK-MEL-5 melanoma, with TK-10 renal, in the assay on U251 CNS and in the assay on UACC-257 melanoma was greater than 100 µM in each case.

For `Cc1n[nH]c(=O)n1/N=C/c1ccc(F)cc1`, the TGI in the assay with A549 NSCLC, with CAKI-1 renal, in the assay on CCRF-CEM leukemia, with HCC-2998 colon, with HOP-62 NSCLC and with HOP-92 NSCLC was greater than 100 µM each time. Besides, the TGI in the assay on KM12 colon, in the assay with M14 melanoma, in the assay on NCI-H23 lung, with NCI-H522 lung, in the assay on OVCAR-3 ovarian and in the assay with SF-268 CNS was greater than 100 µM throughout. For the same compound, the TGI with UACC-257 melanoma is greater than 100 µM.

Regarding `CC(=O)OC[C@]1(C)CCCC2(C)C1CCC1C=C(C)[C@H]3CCC12C3` (stereo partly specified), the TGI in the assay on A549 NSCLC, with CAKI-1 renal, with CCRF-CEM leukemia, with HCC-2998 colon, in the assay with HL-60(TB) leukemia and in the assay with HOP-62 NSCLC was greater than 100 µM each time. Besides, the TGI in the assay on KM12 colon was greater than 100 µM; in the assay with M14 melanoma, greater than 100 µM; in the assay with MALME-3M melanoma, greater than 100 µM; in the assay with NCI-H23 lung it was greater than 100 µM; in the assay on NCI-H522 lung, 75 µM; with OVCAR-3 ovarian it was greater than 100 µM. In addition, the TGI in the assay on SF-268 CNS, in the assay on SK-MEL-5 melanoma, with TK-10 renal, in the assay with U251 CNS and with UACC-257 melanoma was greater than 100 µM throughout.

In the case of `CCCSc1ccc2[nH]c(/N=C/c3ccccc3)cc2c1`, the TGI with CAKI-1 renal is greater than 100 µM; in the assay with CCRF-CEM leukemia it was 64.4 µM; with HOP-92 NSCLC it was 76.9 µM; in the assay on M14 melanoma, greater than 100 µM; in the assay on MALME-3M melanoma, 55.7 µM; with NCI-H23 lung it was greater than 100 µM. The TGI with NCI-H522 lung is 46.2 µM; in the assay on OVCAR-3 ovarian, 60.3 µM; in the assay with PC-3 prostate it was greater than 100 µM; in the assay on SF-268 CNS, 49.2 µM; in the assay on SK-MEL-5 melanoma, 20.4 µM; with UACC-257 melanoma it was 57 µM.

For `COc1cccc(C2c3cc4c(cc3OC(N3CCOCC3)C2C)OCO4)c1OC` (stereo unspecified), the TGI in the assay on A549 NSCLC was greater than 100 µM; with CAKI-1 renal, 5.36 µM; in the assay on CCRF-CEM leukemia, 28.8 µM; in the assay with HCC-2998 colon, 22.8 µM; with HOP-62 NSCLC it was 31.6 µM; in the assay with KM12 colon, 36.2 µM. Also, the TGI in the assay with M14 melanoma was 29 µM; in the assay on NCI-H23 lung, greater than 100 µM; in the assay with NCI-H522 lung, 34.3 µM; in the assay with OVCAR-3 ovarian, 36.7 µM; in the assay on PC-3 prostate, 40.6 µM; with SF-268 CNS, 92.2 µM. For the same compound, the TGI with SK-MEL-5 melanoma is 24.5 µM; in the assay with TK-10 renal, greater than 100 µM; in the assay on UACC-257 melanoma, 48.8 µM.

`Cc1c(CCN2CCOCC2)c(N2CCOCC2)n2c(nc3ccccc32)c1C#N`: the TGI with A549 NSCLC, in the assay on CAKI-1 renal, with CCRF-CEM leukemia, with HL-60(TB) leukemia, in the assay with HOP-62 NSCLC and in the assay with HOP-92 NSCLC was greater than 10 µM each time. For the same compound, the TGI with KM12 colon, in the assay with M14 melanoma, in the assay on MALME-3M melanoma, in the assay on NCI-H23 lung, in the assay on OVCAR-3 ovarian and in the assay with PC-3 prostate was greater than 10 µM in each case. Moreover, the TGI in the assay on SF-268 CNS, with SK-MEL-5 melanoma, in the assay with TK-10 renal, in the assay with U251 CNS and in the assay on UACC-257 melanoma was greater than 10 µM in each case.

For `COC(=O)[C@]12CC[C@H]3CC[C@H]([C@H]31)[C@H](c1ccccc1)N2`, the TGI in the assay with A549 NSCLC was determined as 37.3 µM; with CAKI-1 renal it was 41.4 µM; in the assay on CCRF-CEM leukemia it was 95.9 µM; in the assay on HCC-2998 colon, 26.8 µM; in the assay with HL-60(TB) leukemia, 47.6 µM; with HOP-62 NSCLC it was 33.3 µM. In addition, the TGI worked out at 30.3 µM in the assay on HOP-92 NSCLC; 39.8 µM in the assay on KM12 colon; 32.7 µM with M14 melanoma; 37.2 µM in the assay with NCI-H23 lung; 37.7 µM with NCI-H522 lung; 29.3 µM in the assay with OVCAR-3 ovarian. The TGI with PC-3 prostate worked out at 38.7 µM; with SF-268 CNS, 41.5 µM; with SK-MEL-5 melanoma, 27.9 µM; with TK-10 renal it was 32 µM; in the assay with U251 CNS it was 31.4 µM; with UACC-257 melanoma, 29.6 µM.

Turning to `CCCCCCCCCCCCN1[C@H]2CCC[C@H]2C(O)[C@@H]2CCC[C@@H]21` (stereo partly specified), the TGI with A549 NSCLC, in the assay on CAKI-1 renal, in the assay on CCRF-CEM leukemia, in the assay on HCC-2998 colon, in the assay on HL-60(TB) leukemia and in the assay with HOP-62 NSCLC was greater than 100 µM in each case. The TGI in the assay with HOP-92 NSCLC, in the assay with KM12 colon, in the assay with M14 melanoma, with NCI-H23 lung, in the assay with OVCAR-3 ovarian and with PC-3 prostate was greater than 100 µM throughout. Also, the TGI in the assay on SF-268 CNS, in the assay with SK-MEL-5 melanoma, in the assay on U251 CNS and with UACC-257 melanoma was greater than 100 µM each time.
